Results from patent US7928107B2, “Quinazolines useful as modulators of ion channels” (Vertex Pharmaceuticals Incorporated, priority 2004, dated 2011).

Target: NaV 1.8 channel (Homo sapiens, UniProt Q9Y5Y9)
Experiment: Activity against NaV 1.8 channel (optical membrane potential assay)
Type: cell-based
In short: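 Cells expressing the NaV of interest loaded with CC2-DMPE (30 min, room temperature) then DiSBAC2(3) with ABSCl and veratridine; compound incubated 20–30 min. Depolarization triggered by sodium add-back and read on VIPR as 460/580 nm FRET ratio (Rf/Ri), normalized to tetracaine and untreated controls.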

NaV 1.8 channel, sequence (Q9Y5Y9 whole entry): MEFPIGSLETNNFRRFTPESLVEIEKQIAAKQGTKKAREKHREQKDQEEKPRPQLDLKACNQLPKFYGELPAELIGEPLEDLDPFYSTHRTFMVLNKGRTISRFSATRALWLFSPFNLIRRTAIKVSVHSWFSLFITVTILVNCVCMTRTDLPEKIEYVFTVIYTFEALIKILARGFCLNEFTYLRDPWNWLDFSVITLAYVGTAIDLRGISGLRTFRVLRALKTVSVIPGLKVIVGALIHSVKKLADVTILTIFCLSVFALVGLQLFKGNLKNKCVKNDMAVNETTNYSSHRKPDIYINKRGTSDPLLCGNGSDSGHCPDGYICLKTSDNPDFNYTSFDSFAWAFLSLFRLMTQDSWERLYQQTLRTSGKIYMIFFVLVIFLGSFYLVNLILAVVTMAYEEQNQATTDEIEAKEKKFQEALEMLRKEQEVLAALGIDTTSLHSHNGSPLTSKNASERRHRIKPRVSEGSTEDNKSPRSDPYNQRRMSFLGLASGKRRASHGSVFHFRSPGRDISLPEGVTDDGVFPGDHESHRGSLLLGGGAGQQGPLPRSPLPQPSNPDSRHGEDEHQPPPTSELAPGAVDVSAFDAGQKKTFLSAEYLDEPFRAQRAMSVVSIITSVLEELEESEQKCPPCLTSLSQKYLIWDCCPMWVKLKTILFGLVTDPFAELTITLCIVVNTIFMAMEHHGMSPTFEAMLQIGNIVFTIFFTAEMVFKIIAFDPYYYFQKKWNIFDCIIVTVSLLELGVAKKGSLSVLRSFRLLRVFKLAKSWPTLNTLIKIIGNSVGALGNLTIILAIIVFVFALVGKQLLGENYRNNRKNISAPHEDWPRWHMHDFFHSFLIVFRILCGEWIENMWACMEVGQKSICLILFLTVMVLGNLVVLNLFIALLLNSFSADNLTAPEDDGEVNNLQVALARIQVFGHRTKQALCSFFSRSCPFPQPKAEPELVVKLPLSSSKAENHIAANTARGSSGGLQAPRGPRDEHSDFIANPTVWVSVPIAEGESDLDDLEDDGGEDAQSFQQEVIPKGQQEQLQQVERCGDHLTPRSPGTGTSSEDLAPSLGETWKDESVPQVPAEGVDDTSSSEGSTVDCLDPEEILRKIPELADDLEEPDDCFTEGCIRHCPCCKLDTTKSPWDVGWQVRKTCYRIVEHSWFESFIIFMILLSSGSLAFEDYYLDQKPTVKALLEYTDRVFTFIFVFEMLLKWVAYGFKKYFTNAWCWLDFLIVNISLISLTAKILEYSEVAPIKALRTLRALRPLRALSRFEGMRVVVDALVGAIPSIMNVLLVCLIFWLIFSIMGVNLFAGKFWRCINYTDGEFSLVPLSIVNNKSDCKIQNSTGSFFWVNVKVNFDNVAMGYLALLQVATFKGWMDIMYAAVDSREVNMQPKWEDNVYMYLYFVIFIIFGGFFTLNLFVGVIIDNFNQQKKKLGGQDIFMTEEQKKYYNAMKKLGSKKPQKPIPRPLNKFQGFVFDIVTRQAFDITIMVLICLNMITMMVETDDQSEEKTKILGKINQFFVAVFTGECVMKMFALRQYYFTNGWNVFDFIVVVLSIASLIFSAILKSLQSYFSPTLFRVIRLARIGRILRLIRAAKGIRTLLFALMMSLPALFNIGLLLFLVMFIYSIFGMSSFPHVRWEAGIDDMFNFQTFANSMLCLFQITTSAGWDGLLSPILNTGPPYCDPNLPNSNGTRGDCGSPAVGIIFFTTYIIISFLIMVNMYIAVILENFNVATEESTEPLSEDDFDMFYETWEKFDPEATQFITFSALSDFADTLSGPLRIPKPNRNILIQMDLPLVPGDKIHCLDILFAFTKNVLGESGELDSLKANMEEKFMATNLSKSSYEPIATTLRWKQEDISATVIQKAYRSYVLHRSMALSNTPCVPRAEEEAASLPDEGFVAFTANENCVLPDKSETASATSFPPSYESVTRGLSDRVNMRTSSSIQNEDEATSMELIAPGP

Row | IC50 [µM] | SMILES
1 | > 10 | Cc1ccc2c(N3CCC(NC(=O)C(O)C(C)C)CC3)nc(-c3ccccc3O)nc2c1 (centres unmarked) [Example 264]
2 | > 10 | Cc1ccc2c(N3CCC(NC(=O)C(O)CC(C)C)CC3)nc(-c3ccccc3O)nc2c1 (centres unmarked) [Example 265]
3 | 2 to 10 | Cc1ccc2c(N3CCC(CNC(=O)C(O)C(C)C)CC3)nc(-c3ccccc3O)nc2c1 (centres unmarked) [Example 266]
4 | > 10 | Cc1ccc2c(N3CCC(NC(=O)[C@H](O)CC(C)C)CC3)nc(-c3ccccc3O)nc2c1 [Example 267]
5 | > 10 | Cc1ccc2c(N3CCC(NC(=O)[C@@H](O)CC(C)C)CC3)nc(-c3ccccc3O)nc2c1 [Example 268]
6 | > 10 | Cc1ccc2c(N3CCC(CNC(=O)[C@H](O)C(C)C)CC3)nc(-c3ccccc3O)nc2c1 [Example 269]
7 | 2 to 10 | Cc1ccc2c(N3CCN(C(=O)C(O)CC(C)C)CC3)nc(-c3ccccc3O)nc2c1 (centres unmarked) [Example 270]
8 | > 10 | Cc1ccc2c(N3CCC(C(=O)NCC4CCCO4)CC3)nc(-c3ccccc3O)nc2c1 (centres unmarked) [Example 271]
9 | 2 to 10 | Cc1ccc2c(N3CCC(NC(=O)O[C@@H]4CCOC4)CC3)nc(-c3ccccc3O)nc2c1 [Example 272]
10 | 2 to 10 | Cc1ccc2c(N3CCC(NC(=O)OCC4CCCO4)CC3)nc(-c3ccccc3O)nc2c1 (centres unmarked) [Example 274]
11 | 2 to 10 | Cc1ccc2c(N3CCC(NC(=O)OCC4CCOC4)CC3)nc(-c3ccccc3O)nc2c1 (centres unmarked) [Example 275]
12 | 2 to 10 | Cc1ccc2c(N3CCC(NC(=O)[C@H]4CCCO4)CC3)nc(-c3ccccc3O)nc2c1 [Example 276, (R)-Tetrahydro-furan-2-carboxylic acid {1-[2-(2-hydroxy-phenyl)-7-methyl-quinazolin-4-yl]-piperidin-4-yl}-amide]
13 | 2 to 10 | Cc1ccc2c(N3CCC(NC(=O)[C@@H]4CCCO4)CC3)nc(-c3ccccc3O)nc2c1 [Example 277]
14 | > 10 | Cc1ccc2c(N3CCC(CNC(=O)OCC(C)C)CC3)nc(-c3ccccc3O)nc2c1 [Example 278]
15 | 2 to 10 | Cc1ccc2c(N3CCC(CNC(=O)OC(C)C)CC3)nc(-c3ccccc3O)nc2c1 [Example 279]
16 | 2 to 10 | Cc1ccc2c(N3CCC(NC(=O)O[C@@H]4CO[C@H]5OCC[C@H]54)CC3)nc(-c3ccccc3O)nc2c1 [Example 280]
17 | 2 to 10 | Cc1ccc2c(N3CCC[C@@H](CNC(=O)O[C@H]4CO[C@@H]5OCC[C@@H]54)C3)nc(-c3ccccc3O)nc2c1 [Example 281]
18 | < 2 | Cc1ccc2c(N3CCC[C@@H](NC(=O)OCC(C)C)C3)nc(-c3ccccc3O)nc2c1 [Example 282]
19 | < 2 | Cc1ccc2c(N3CCC(NC(=O)[C@H]4CCCO4)CC3)nc(-c3ccccc3O)nc2c1 [Example 283]
20 | 2 to 10 | Cc1ccc2c(N3CC[C@@H](NC(=O)O[C@H]4CCOC4)C3)nc(-c3ccccc3O)nc2c1 [Example 301, (S)-Tetrahydrofuran-3-yl (R)-1-(2-(2-hydroxyphenyl)-7-methylquinazolin-4-yl)pyrrolidin-3-ylcarbamate]
21 | > 10 | Cc1ccc2c(N3CC[C@@H](NC(=O)[C@H]4CCCO4)C3)nc(-c3ccccc3O)nc2c1 [Example 302, (R,R)-Tetrahydro-furan-2-carboxylic acid {1-[2-(2-hydroxy-phenyl)-7-methyl-quinazolin-4-yl]-pyrrolidin-3-yl}-amide]
22 | > 10 | Cc1ccc2c(N3CC[C@H](NC(=O)O[C@H]4CCOC4)C3)nc(-c3ccccc3O)nc2c1 [Example 304, (S,S)-{1-[2-(2-Hydroxy-phenyl)-7-methyl-quinazolin-4-yl]-pyrrolidin-3-yl}-carbamic acid tetrahydro-furan-3-yl ester]

Row | IC50 [µM] | SMILES
23 | 2 to 10 | Cc1ccc2c(N3CC[C@@H](CNC(=O)O[C@H]4CCOC4)C3)nc(-c3ccccc3O)nc2c1 [Example 305, (S)-Tetrahydrofuran-3-yl ((S)-1-(2-(2-hydroxyphenyl)-7-methylquinazolin-4-yl)pyrrolidin-3-yl)methylcarbamate]
24 | > 10 | Cc1ccc2c(N3CC[C@H](CNC(=O)O[C@@H]4CCOC4)C3)nc(-c3ccccc3O)nc2c1 [Example 306, (R)-Tetrahydrofuran-3-yl ((R)-1-(2-(2-hydroxyphenyl)-7-methylquinazolin-4-yl)pyrrolidin-3-yl)methylcarbamate]
25 | > 10 | Cc1ccc2c(N3CC[C@H](CNC(=O)O[C@H]4CCOC4)C3)nc(-c3ccccc3O)nc2c1 [Example 307, (S)-Tetrahydrofuran-3-yl ((R)-1-(2-(2-hydroxyphenyl)-7-methylquinazolin-4-yl)pyrrolidin-3-yl)methylcarbamate]
26 | > 10 | Cc1ccc2c(N3CC[C@H](CNC(=O)[C@H]4CCCO4)C3)nc(-c3ccccc3O)nc2c1 [Example 308, (2R)-Tetrahydro-N—(((R)-1-(2-(2-hydroxyphenyl)-7-methylquinazolin-4-yl)pyrrolidin-3-yl)methyl)furan-2-carboxamide]
27 | < 2 | Cc1ccc2c(N3CC[C@@H](NC(=O)OCc4ccccc4)C3)nc(-c3ccccc3O)nc2c1 [Example 309, (R)-{1-[2-(2-Hydroxy-phenyl)-7-methyl-quinazolin-4-yl]-pyrrolidin-3-yl}-carbamic acid benzyl ester]
28 | 2 to 10 | Cc1ccc2c(N3CC[C@@H](CNC(=O)[C@H]4CCCO4)C3)nc(-c3ccccc3O)nc2c1 [Example 310, (2R)-Tetrahydro-N—(((S)-1-(2-(2-hydroxyphenyl)-7-methylquinazolin-4-yl)pyrrolidin-3-yl)methyl)furan-2-carboxamide]
29 | < 2 | Cc1ccc2c(N3CC[C@@H](CNC(=O)C4CC4)C3)nc(-c3ccccc3O)nc2c1 [Example 311, N—(((S)-1-(2-(2-Hydroxyphenyl)-7-methylquinazolin-4-yl)pyrrolidin-3-yl)methyl)cyclopropanecarboxamide]
30 | 2 to 10 | Cc1ccc2c(N3CC[C@@H](NC(=O)C4CC4)C3)nc(-c3ccccc3O)nc2c1 [Example 312, (R)-Cyclopropanecarboxylic acid {1-[2-(2-hydroxy-phenyl)-7-methyl-quinazolin-4-yl]-pyrrolidin-3-yl}-amide]
31 | 2 to 10 | Cc1ccc2c(N3CC[C@@H](NC(=O)OCC4CCCCO4)C3)nc(-c3ccccc3O)nc2c1 (stereo partly drawn) [Example 314, (Tetrahydro-2H-pyran-2-yl)methyl (R)-1-(2-(2-hydroxyphenyl)-7-methylquinazolin-4-yl)pyrrolidin-3-ylcarbamate]
32 | > 10 | Cc1ccc2c(N3CC[C@@H](NC(=O)C4CCC(=O)N4)C3)nc(-c3ccccc3O)nc2c1 (stereo partly drawn) [Example 315, (R)-5-Oxo-pyrrolidine-2-carboxylic acid {1-[2-(2-hydroxy-phenyl)-7-methyl-quinazolin-4-yl]-pyrrolidin-3-yl}-amide]
33 | > 10 | Cc1ccc2c(N3CC[C@@H](NC(=O)C4CCOCC4)C3)nc(-c3ccccc3O)nc2c1 [Example 316, Tetrahydro-N—((R)-1-(2-(2-hydroxyphenyl)-7-methylquinazolin-4-yl)pyrrolidin-3-yl)-2H-pyran-4-carboxamide]
34 | 2 to 10 | Cc1ccc2c(N3CC[C@@H](NC(=O)CC4CCOCC4)C3)nc(-c3ccccc3O)nc2c1 [Example 317, 2-(Tetrahydro-2H-pyran-4-yl)-N—((R)-1-(2-(2-hydroxyphenyl)-7-methylquinazolin-4-yl)pyrrolidin-3-yl)acetamide]
35 | > 10 | Cc1ccc2c(N3CC[C@@H](NC(=O)CCc4ccccn4)C3)nc(-c3ccccc3O)nc2c1 [Example 318, N—((R)-1-(2-(2-Hydroxyphenyl)-7-methylquinazolin-4-yl)pyrrolidin-3-yl)-3-(pyridin-2-yl)propanamide]
36 | 2 to 10 | Cc1ccc2c(N3CC[C@@H](NC(=O)OCc4cccnc4)C3)nc(-c3ccccc3O)nc2c1 [Example 319, (Pyridin-3-yl)methyl (R)-1-(2-(2-hydroxyphenyl)-7-methylquinazolin-4-yl)pyrrolidin-3-ylcarbamate]
37 | 2 to 10 | Cc1ccc2c(N3CC[C@@H](NC(=O)OCc4ccncc4)C3)nc(-c3ccccc3O)nc2c1 [Example 320, (Pyridin-4-yl)methyl (R)-1-(2-(2-hydroxyphenyl)-7-methylquinazolin-4-yl)pyrrolidin-3-ylcarbamate]
38 | > 10 | Cc1ccc2c(N3CC[C@@H](NC(=O)OCc4cccc5c4OCO5)C3)nc(-c3ccccc3O)nc2c1 [Example 321, (Benzo[d][1,3]dioxol-7-yl)methyl (R)-1-(2-(2-hydroxyphenyl)-7-methylquinazolin-4-yl)pyrrolidin-3-ylcarbamate]
39 | > 10 | Cc1ccc2c(N3CC[C@@H](NC(=O)CCc4cccnc4)C3)nc(-c3ccccc3O)nc2c1 [Example 322, N—((R)-1-(2-(2-Hydroxyphenyl)-7-methylquinazolin-4-yl)pyrrolidin-3-yl)-3-(pyridin-3-yl)propanamide]
40 | > 10 | Cc1ccc2c(N3CC[C@@H](NC(=O)CCC4CCCC4)C3)nc(-c3ccccc3O)nc2c1 [Example 323, (R)-3-Cyclopentyl-N-{1-[2-(2-hydroxy-phenyl)-7-methyl-quinazolin-4-yl]-pyrrolidin-3-yl}-propionamide]
41 | > 10 | Cc1ccc2c(N3CC[C@@H](NC(=O)CCN4CCCCC4)C3)nc(-c3ccccc3O)nc2c1 [Example 324]
42 | > 10 | Cc1ccc2c(N3CC[C@@H](NC(=O)c4cccc(OC(F)(F)F)c4)C3)nc(-c3ccccc3O)nc2c1 [Example 325, N—((R)-1-(2-(2-Hydroxyphenyl)-7-methylquinazolin-4-yl)pyrrolidin-3-yl)-3-(trifluoromethoxy)benzamide]
43 | > 10 | COc1cccc(C(=O)N[C@@H]2CCN(c3nc(-c4ccccc4O)nc4cc(C)ccc34)C2)c1 [Example 326, N—((R)-1-(2-(2-Hydroxyphenyl)-7-methylquinazolin-4-yl)pyrrolidin-3-yl)-3-methoxybenzamide]
44 | > 10 | Cc1ccc2c(N3CC[C@@H](NC(=O)c4cccc(C#N)c4)C3)nc(-c3ccccc3O)nc2c1 [Example 327, 3-Cyano-N—((R)-1-(2-(2-hydroxyphenyl)-7-methylquinazolin-4-yl)pyrrolidin-3-yl)benzamide]
